What was measured:
Annual bluegrass = assay: Herbicidal activity at different growth stages, fresh weight suppression; type: in vivo; conditions: for Suppression ratio relative to the biomass of the untreated group: Annual bluegrass 1 leaf / Suppression ratio relative to the biomass of the untreated group: Annual bluegrass 2 leaf / Suppression ratio relative to the biomass of the untreated group: Annual bluegrass 3 leaf / Suppression ratio relative to the biomass of the untreated group: Annual bluegrass 4 leaf / Suppression ratio relative to the biomass of the untreated group: Annual bluegrass PRE: fresh weight two weeks after treatment
Method: To a cup pot having a surface area of 100 cm^2 wherein mixed soils including blend bed soil (Boonong, Horticultural Bed Soil No. 3) and sandy loam soil were filled (mixing ratio, 1:1), seeds of large crabgrass and annual bluegrass were sown consecutively at an one week interval. The pots were moistened by sub-irrigation, and kept in a greenhouse maintained at 25˜30° C. (day) or 15˜25° C. (night). The said weeds were grown to various growth stages from pre-emergence to the four-leaf stage. […] Spray volume was adjusted to 2,000 L/ha. The method to spray of the test substance and prepare spray solutions were the same as described above. The reference herbicide was used after it was diluted with 0.2% (v/v) Tween 20 aqueous solution. The test was conducted in a randomized block design with three replicates. Two weeks after the treatment, plant parts remained above the pot soil surface were cut and the fresh weight was weighed. Results are given by a suppression ratio relative to the biomass that was obtained from the untreated group (see, Table 3).

Cocklebur = assay: Upland pot test, pre-/post-emergence spray, visual rating; type: in vivo, common cocklebur (XANST); conditions: 2 weeks after spray, 0-10 scale (10=completely killed)
From the text: (§1) To a rectangular plastic pot having a surface area of 300 cm^2, mixed soils including blend bed soil (Boonong, Horticultural Bed Soil No. 3) and sandy loam soil were filled (mixing ratio, 1:1). Seeds of the eight different types of weeds including gramineous weed such as barnyardgrass, large crabgrass, green foxtail, fall panicum, and broadleaf weed such as common cocklebur, velvetleaf, Indian joint-vetch, and morningglory were sown. To the other pot containing the same soil mixture, seeds of the five different types of crops including corn, soybean, cotton, wheat and rice were sown. Pots were kept in a greenhouse of which temperature was maintained at 25˜30° C. (day) or 15˜25° C. (night), and regularly watered.
(§2) After fourteen days and when the crops and the weeds reached their three-leaf stage, the other set of a crop pot and a weed pot were prepared by the same method as described above. Then, “test substance” was sprayed thereto. In this case, spray treatment to the plants after they have grown for two weeks corresponded to post-emergence treatment while spray treatment to the seeds right after the sowing corresponded to pre-emergence treatment. Spray was carried out by using a track sprayer (R&D Sprayer, USA) equipped with a Teejet 8002 nozzle (Spraying Systems Co., USA). Spray volume was adjusted to 300 L/ha. The spray solution was prepared by dissolving the “test substance” in acetone and adding the same volume of 0.2% (v/v) Tween 20 aqueous solution. Dosage of the test substance was 500, 250, 125, 62.5 or 31.3 g/ha. Two weeks after the spray of the test substance, efficacy and phytotoxic effect to the crops and the weeds were visually measured based on a 0 to 10 scale (0: no efficacy, 10: completely killed).

Indian joint-vetch = assay: as above; type: in vivo, Indian joint-vetch (AESIN); conditions: 2 weeks after spray, 0-10 scale (10=completely killed)
From the text: as §1, §2

Fall panicum = assay: as above; type: in vivo, fall panicum (PANDI); conditions: 2 weeks after spray, 0-10 scale (10=completely killed)
From the text: as §1, §2

Wheat = assay: as above; type: in vivo, wheat (TRIAZ); conditions: for Visual measurement: Crops, Wheat: 2 weeks after spray, 0-10 scale (10=completely killed)
From the text: as §1, §2

[1] = post-emergence foliar spray at three leaf stage, 31.2 g/ha
[2] = post-emergence foliar spray at three leaf stage, 62.5 g/ha
[3] = post-emergence foliar spray at three leaf stage, 125 g/ha
[4] = post-emergence foliar spray at three leaf stage, 250 g/ha
[5] = post-emergence foliar spray at three leaf stage, 500 g/ha
[6] = pre-emergence soil treatment, 31.2 g/ha
[7] = pre-emergence soil treatment, 62.5 g/ha
[8] = pre-emergence soil treatment, 125 g/ha
[9] = pre-emergence soil treatment, 250 g/ha
[10] = pre-emergence soil treatment, 500 g/ha

Cc1ccsc1C1=NOC(C)(COCc2c(F)cccc2F)C1 (centres unmarked) [test substance, 5-(2,6-difluorobenzyl)oxymethyl-5-methyl-3-(4-methylthiophen-5-yl)-1,2-isoxazoline]
Suppression ratio relative to the biomass of the untreated group: Annual bluegrass 1 leaf (Annual bluegrass; 1 kg/ha): 97% | Suppression ratio relative to the biomass of the untreated group: Annual bluegrass 2 leaf (Annual bluegrass; 1 kg/ha): 93% | Suppression ratio relative to the biomass of the untreated group: Annual bluegrass 3 leaf (Annual bluegrass; 1 kg/ha): 66% | Suppression ratio relative to the biomass of the untreated group: Annual bluegrass 4 leaf (Annual bluegrass; 1 kg/ha): 55% | Suppression ratio relative to the biomass of the untreated group: Annual bluegrass PRE (Annual bluegrass; 1 kg/ha): 100% | Suppression ratio relative to the biomass of the untreated group: Annual bluegrass 1 leaf (Annual bluegrass; 2 kg/ha): 99% | Suppression ratio relative to the biomass of the untreated group: Annual bluegrass 2 leaf (Annual bluegrass; 2 kg/ha): 95% | Suppression ratio relative to the biomass of the untreated group: Annual bluegrass 3 leaf (Annual bluegrass; 2 kg/ha): 69% | Suppression ratio relative to the biomass of the untreated group: Annual bluegrass 4 leaf (Annual bluegrass; 2 kg/ha): 60% | Suppression ratio relative to the biomass of the untreated group: Annual bluegrass PRE (Annual bluegrass; 2 kg/ha): 100% | Suppression ratio relative to the biomass of the untreated group: Annual bluegrass 1 leaf (Annual bluegrass; .12 kg/ha): 37% | Suppression ratio relative to the biomass of the untreated group: Annual bluegrass 2 leaf (Annual bluegrass; .12 kg/ha): 35% | Suppression ratio relative to the biomass of the untreated group: Annual bluegrass 3 leaf (Annual bluegrass; .12 kg/ha): 0% | Suppression ratio relative to the biomass of the untreated group: Annual bluegrass 4 leaf (Annual bluegrass; .12 kg/ha): 0% | Suppression ratio relative to the biomass of the untreated group: Annual bluegrass PRE (Annual bluegrass; .12 kg/ha): 95% | Suppression ratio relative to the biomass of the untreated group: Annual bluegrass 1 leaf (Annual bluegrass; .25 kg/ha): 95% | Suppression ratio relative to the biomass of the untreated group: Annual bluegrass 2 leaf (Annual bluegrass; .25 kg/ha): 82% | Suppression ratio relative to the biomass of the untreated group: Annual bluegrass 3 leaf (Annual bluegrass; .25 kg/ha): 18% | Suppression ratio relative to the biomass of the untreated group: Annual bluegrass 4 leaf (Annual bluegrass; .25 kg/ha): 2% | Suppression ratio relative to the biomass of the untreated group: Annual bluegrass PRE (Annual bluegrass; .25 kg/ha): 100% | Suppression ratio relative to the biomass of the untreated group: Annual bluegrass 1 leaf (Annual bluegrass; .5 kg/ha): 96% | Suppression ratio relative to the biomass of the untreated group: Annual bluegrass 2 leaf (Annual bluegrass; .5 kg/ha): 90% | Suppression ratio relative to the biomass of the untreated group: Annual bluegrass 3 leaf (Annual bluegrass; .5 kg/ha): 61% | Suppression ratio relative to the biomass of the untreated group: Annual bluegrass 4 leaf (Annual bluegrass; .5 kg/ha): 37% | Suppression ratio relative to the biomass of the untreated group: Annual bluegrass PRE (Annual bluegrass; .5 kg/ha): 100% | Suppression of annual bluegrass (Annual bluegrass; PRE to 2-leaf stage, 0.5 kg/ha or above): ≥ 90% | Control of annual bluegrass (in words) (Annual bluegrass; over three-leaf stage): suppressed but were not completely controlled | Visual measurement: Broadleaf weed, Cocklebur (Cocklebur; [1]): 0 | Visual measurement: Broadleaf weed, Cocklebur (Cocklebur; [2]): 0 | Visual measurement: Broadleaf weed, Cocklebur (Cocklebur; [3]): 1 | Visual measurement: Broadleaf weed, Cocklebur (Cocklebur; [4]): 3 | Visual measurement: Broadleaf weed, Cocklebur (Cocklebur; [5]): 7 | Visual measurement: Broadleaf weed, Cocklebur (Cocklebur; [6]): 0 | Visual measurement: Broadleaf weed, Cocklebur (Cocklebur; [7]): 0 | Visual measurement: Broadleaf weed, Cocklebur (Cocklebur; [8]): 0 | Visual measurement: Broadleaf weed, Cocklebur (Cocklebur; [9]): 0 | Visual measurement: Broadleaf weed, Cocklebur (Cocklebur; [10]): 0 | Visual measurement: Broadleaf weed, Indian joint-vetch (Indian joint-vetch; [1]): 0 | Visual measurement: Broadleaf weed, Indian joint-vetch (Indian joint-vetch; [2]): 1 | Visual measurement: Broadleaf weed, Indian joint-vetch (Indian joint-vetch; [3]): 2 | Visual measurement: Broadleaf weed, Indian joint-vetch (Indian joint-vetch; [4]): 3 | Visual measurement: Broadleaf weed, Indian joint-vetch (Indian joint-vetch; [5]): 4 | Visual measurement: Broadleaf weed, Indian joint-vetch (Indian joint-vetch; [6]): 0 | Visual measurement: Broadleaf weed, Indian joint-vetch (Indian joint-vetch; [7]): 0 | Visual measurement: Broadleaf weed, Indian joint-vetch (Indian joint-vetch; [8]): 0 | Visual measurement: Broadleaf weed, Indian joint-vetch (Indian joint-vetch; [9]): 0 | Visual measurement: Broadleaf weed, Indian joint-vetch (Indian joint-vetch; [10]): 0 | Visual measurement: Gramineous weed, Fall panicum (Fall panicum; [1]): 0 | Visual measurement: Gramineous weed, Fall panicum (Fall panicum; [2]): 1 | Visual measurement: Gramineous weed, Fall panicum (Fall panicum; [3]): 3 | Visual measurement: Gramineous weed, Fall panicum (Fall panicum; [4]): 6 | Visual measurement: Gramineous weed, Fall panicum (Fall panicum; [5]): 8 | Visual measurement: Gramineous weed, Fall panicum (Fall panicum; [6]): 5 | Visual measurement: Gramineous weed, Fall panicum (Fall panicum; [7]): 8 | Visual measurement: Gramineous weed, Fall panicum (Fall panicum; [8]): 9 | Visual measurement: Gramineous weed, Fall panicum (Fall panicum; [9]): 9 | Visual measurement: Gramineous weed, Fall panicum (Fall panicum; [10]): 10 | Visual measurement: Crops, Wheat (Wheat; [1]): 0 | Visual measurement: Crops, Wheat (Wheat; [2]): 0 | Visual measurement: Crops, Wheat (Wheat; [3]): 0 | Visual measurement: Crops, Wheat (Wheat; [4]): 0 | Visual measurement: Crops, Wheat (Wheat; [5]): 0 | Safety to wheat (in words) (Wheat; post-emergence treatment): safe | Visual measurement: Crops, Wheat (Wheat; [6]): 0 | Visual measurement: Crops, Wheat (Wheat; [7]): 0 | Visual measurement: Crops, Wheat (Wheat; [8]): 0 | Visual measurement: Crops, Wheat (Wheat; [9]): 0 | Visual measurement: Crops, Wheat (Wheat; [10]): 0

— US8445409B2, “Use of 5-benzyloxymethyl-1,2-isoxazoline derivatives as a herbicide” (Moghu Research Center Ltd., priority 2007, dated 2013)
